Results: patent publication US6143740A, “Heregulin antagonists and methods for their use” (Georgetown University, priority 1999, dated 2000)

How the values were obtained:
[1] = system: EGF-mediated signaling pathway (MDA-468 cells); assay: Specificity: incubation with EGF in EGFR overexpressing cell line MDA-468; format: cell-based
32D/erbB-4 cells [2] = assay: HRG-dependent cell proliferation, 32D/erbB-4; format: cell-based, murine
From the text: (§1) Inhibition of HRG-dependent cell proliferation--Since most human cancer cells express more than one of the erbB receptors and different heterodimerization might alter the binding affinity and/or internalization, it is difficult to define the exact correlation of the receptor expression and the antagonist activity of the small molecules. To overcome this difficulty, a 32D cell (murine, hematopoietic) model system, in which the 32D cells were transfected with erbB4 receptor, can be utilized. […] 32t cells transfected with erbB-4 will proliferate in the presence of either HRG or IL-3. With this 32D cell model system, compounds of the invention can be tested for their antagonist activity and specificity in both HRG-dependent and HRG-independent growth.

32D cells = assay: IL-3 stimulated (HRG-independent) growth, 32D; format: cell-based, murine
From the text: as §1

32D/erbB-4 cells [3] = assay: IL-3 stimulated (HRG-independent) growth, 32D/erbB-4; format: cell-based, murine
From the text: as §1

[4] = system: HRG-induced tyrosine phosphorylation (MDA-453 cells); assay: Inhibition of HRG-induced phosphorylation, dose dependence in MDA-453 cells; format: cell-based; conditions: 10 nM HRG
Protocol: (§2) The ability of compounds of the invention to block HRG-induced phosphorylation was tested by co-incubation with 10 nM HRG (maximal induction).

HRG receptor = assay: Structure-activity relationship of rifamycin analogues as heregulin antagonists (FIGS. 6 and 7); format: cell-based; conditions: substituent at C9 position
Protocol: Replacement of residues 177 and 178 by an acetyl group decreases the binding affinity of HRG to its receptor by more than 50-fold (Barbacci et al., J. Bio. Chem. 1995; 270(16)9585-9).
The structure-activity relationships of rifamycin analogues also indicates the importance of this region (FIGS. 6 and 7).
Inhibition of receptor binding--To investigate whether a compound can inhibit binding between HRG and its receptors, binding assays were performed using ^125 I labeled EGF domain of HRG-β1 (HED-β1). The binding affinity of iodine-labeled HED-β1 in T47D or MDA-453 cells was pre-determined. Unlabeled compounds were co-incubatedwith the radiolabeled ligand for 2 hours at 4° C., and the cells were washed 3 times with an ice-cold binding buffer. The labeled cells were lysed, and counted in a gamma-counter. Compounds that displaced more than 50% of labeled HED-β1 from the HRG-receptors were then re-examined in a dose-dependent manner.
as §2

Compound	effect on EGF-mediated signaling pathway [1]	HRG-dependent cell growth inhibition (32D/erbB-4 cells [2])	inhibition of IL-3 stimulated growth (32D cells)	inhibition of IL-3 stimulated growth (32D/erbB-4 cells [3])	inhibition of HRG-induced phosphorylation [4]	antagonist activity (structure-activity, FIGS. 6 and 7) (HRG receptor)
COC1C=COC2(C)Oc3c(C)c(O)c4c(O)c(c(C=NN5C(C)CN(Cc6cccc(O)c6)CC5C)c(O)c4c3C2=O)NC(=O)C(C)=CC=CC(C)C(O)C(C)C(O)C(C)C(OC(C)=O)C1C (stereo not drawn) [Compound A1]	no or very little effect	inhibit only the HRG-dependent cell growth	not IL-3 stimulated growth	not IL-3 stimulated growth	dose-dependent inhibition	
COC1C=COC2(C)Oc3c(C)c(O)c4c(O)c(c(C=NN(C)C56CC7CC(CC(C7)C5)C6)c(O)c4c3C2=O)NC(=O)C(C)=CC=CC(C)C(O)C(C)C(O)C(C)C(OC(C)=O)C1C (stereo not drawn) [Compound A3]	no or very little effect				dose-dependent inhibition	fairly good activities
COC1C=COC2(C)Oc3c(C)c(O)c4c(O)c(c(C=NN5CCCCCCCCCCCCCCCCC5)c(O)c4c3C2=O)NC(=O)C(C)=CC=CC(C)C(O)C(C)C(O)C(C)C(OC(C)=O)C1C (stereo not drawn) [Compound A4]						fairly good activities
